Assays:
[1] = tested on: Arabidopsis plants, construct hemG_tpFNR (SEQ ID NO 117); experiment: Tolerance of transgenic T1 Arabidopsis plants to herbicides, greenhouse (Tolerance Factor); assay type: in vivo, Arabidopsis thaliana
[2] = tested on: Arabidopsis plants, construct hemG_tpsAMATU_PPO2 (SEQ ID NO 119); experiment: as above; assay type: in vivo, Arabidopsis thaliana
[3] = tested on: Arabidopsis plants, construct hemG_tplAMATU_PPO2 (SEQ ID NO 118); experiment: as above; assay type: in vivo, Arabidopsis thaliana
[4] = tested on: Arabidopsis plants, construct hemF_tpFNR (SEQ ID NO 114); experiment: as above; assay type: in vivo, Arabidopsis thaliana
[5] = tested on: Arabidopsis plants, construct hemF_tpsAMATU_PPO2 (SEQ ID NO 116); experiment: as above; assay type: in vivo, Arabidopsis thaliana
[6] = tested on: Arabidopsis plants, construct hemF_tplAMATU_PPO2 (SEQ ID NO 115); experiment: as above; assay type: in vivo, Arabidopsis thaliana
[7] = tested on: Arabidopsis plants, construct RHOMA_PPO_wt_tpFNR (SEQ ID NO 123); experiment: as above; assay type: in vivo, Arabidopsis thaliana
[8] = tested on: Arabidopsis plants, construct RHOMA_PPO_wt_tpAMATU_PPO2 (SEQ ID NO 127); experiment: as above; assay type: in vivo, Arabidopsis thaliana
[9] = tested on: Arabidopsis plants, construct RHOMA_PPO_F420V_tpFNR (SEQ ID NO 124); experiment: as above; assay type: in vivo, Arabidopsis thaliana
[10] = tested on: Arabidopsis plants, construct OPITE_PPO_wt_tpFNR (SEQ ID NO 121); experiment: as above; assay type: in vivo, Arabidopsis thaliana
[11] = tested on: Arabidopsis plants, construct CHLSP_PPO_wt_tpFNR (SEQ ID NO 128); experiment: as above; assay type: in vivo, Arabidopsis thaliana
[12] = tested on: Wildtype/non-transgenic Arabidopsis thaliana; experiment: Herbicide injury evaluation of Arabidopsis plants, greenhouse; assay type: in vivo; conditions: scale 0-100
[13] = tested on: transgenic Arabidopsis thaliana, transgene SEQ ID NO 119; experiment: as above; assay type: in vivo; conditions: Table 3, scale 0-100
[14] = tested on: transgenic Arabidopsis thaliana, transgene SEQ ID NO 117; experiment: as above; assay type: in vivo; conditions: Table 3, scale 0-100
[15] = tested on: transgenic Arabidopsis thaliana, transgene SEQ ID NO 118; experiment: as above; assay type: in vivo; conditions: scale 0-100
[16] = tested on: transgenic Arabidopsis thaliana, transgene SEQ ID NO 121; experiment: as above; assay type: in vivo; conditions: Table 3, scale 0-100
[17] = tested on: transgenic Arabidopsis thaliana, transgene SEQ ID NO 128; experiment: as above; assay type: in vivo; conditions: Table 3, scale 0-100
[18] = tested on: transgenic Arabidopsis thaliana, transgene SEQ ID NO 120; experiment: as above; assay type: in vivo; conditions: Table 4, scale 0-100

SMILES: C#CCN1C(=O)C(F)(F)Oc2cc(F)c(-n3c(=O)n(C)c(=S)n(C)c3=O)cc21 [Trifludimoxazine, 1,5-dimethyl-6-thioxo-3-(2,2,7-trifluoro-3-oxo-4-(prop-2-ynyl)-3,4-dihydro-2H-benzo[b][1,4]oxazin-6-yl)-1,3,5-triazinane-2,4-dione]
- Tolerance Factor [1]: 4433
- Tolerance Factor [2]: 1
- Tolerance Factor [3]: 9167
- Tolerance Factor [4]: 1
- Tolerance Factor [5]: 1
- Tolerance Factor [6]: 1
- Tolerance Factor [7]: 1
- Tolerance Factor [8]: 1
- Tolerance Factor [9]: 1
- Tolerance Factor [10]: 9
- Tolerance Factor [11]: 1500
- Herbicide injury evaluation 14 days after herbicide treatment ([12]; Table 3, 25 g ai/ha + 1% MSO): 100
- Herbicide injury evaluation 14 days after herbicide treatment ([12]; Table 3, 75 g ai/ha + 1% MSO): 100
- Herbicide injury evaluation 14 days after herbicide treatment ([12]; Table 3, 150 g ai/ha + 1% MSO): 100
- Herbicide injury evaluation 14 days after herbicide treatment ([12]; Table 4, 25 g ai/ha + 1% MSO): 100
- Herbicide injury evaluation 14 days after herbicide treatment ([12]; Table 4, 75 g ai/ha + 1% MSO): 100
- Herbicide injury evaluation 14 days after herbicide treatment ([12]; Table 4, 150 g ai/ha + 1% MSO): 100
- Herbicide injury evaluation 14 days after herbicide treatment ([13]; SEQ ID NO 119 A, 25 g ai/ha + 1% MSO): 100
- Herbicide injury evaluation 14 days after herbicide treatment ([13]; SEQ ID NO 119 A, 75 g ai/ha + 1% MSO): 100
- Herbicide injury evaluation 14 days after herbicide treatment ([13]; SEQ ID NO 119 A, 150 g ai/ha + 1% MSO): 100
- Herbicide injury evaluation 14 days after herbicide treatment ([13]; SEQ ID NO 119 B, 25 g ai/ha + 1% MSO): 100
- Herbicide injury evaluation 14 days after herbicide treatment ([13]; SEQ ID NO 119 B, 75 g ai/ha + 1% MSO): 100
- Herbicide injury evaluation 14 days after herbicide treatment ([13]; SEQ ID NO 119 B, 150 g ai/ha + 1% MSO): 100
- Herbicide injury evaluation 14 days after herbicide treatment ([14]; SEQ ID NO 117 C, 25 g ai/ha + 1% MSO): 92
- Herbicide injury evaluation 14 days after herbicide treatment ([14]; SEQ ID NO 117 C, 75 g ai/ha + 1% MSO): 93
- Herbicide injury evaluation 14 days after herbicide treatment ([14]; SEQ ID NO 117 C, 150 g ai/ha + 1% MSO): 97
- Herbicide injury evaluation 14 days after herbicide treatment ([14]; SEQ ID NO 117 I, 25 g ai/ha + 1% MSO): 90
- Herbicide injury evaluation 14 days after herbicide treatment ([14]; SEQ ID NO 117 I, 75 g ai/ha + 1% MSO): 99
- Herbicide injury evaluation 14 days after herbicide treatment ([14]; SEQ ID NO 117 I, 150 g ai/ha + 1% MSO): 98
- Herbicide injury evaluation 14 days after herbicide treatment ([15]; Table 3, SEQ ID NO 118 Q, 25 g ai/ha + 1% MSO): 45
- Herbicide injury evaluation 14 days after herbicide treatment ([15]; Table 3, SEQ ID NO 118 Q, 75 g ai/ha + 1% MSO): 50
- Herbicide injury evaluation 14 days after herbicide treatment ([15]; Table 3, SEQ ID NO 118 Q, 150 g ai/ha + 1% MSO): 58
- Herbicide injury evaluation 14 days after herbicide treatment ([15]; Table 3, SEQ ID NO 118 R, 25 g ai/ha + 1% MSO): 20
- Herbicide injury evaluation 14 days after herbicide treatment ([15]; Table 3, SEQ ID NO 118 R, 75 g ai/ha + 1% MSO): 23
- Herbicide injury evaluation 14 days after herbicide treatment ([15]; Table 3, SEQ ID NO 118 R, 150 g ai/ha + 1% MSO): 10
- Herbicide injury evaluation 14 days after herbicide treatment ([15]; Table 4, SEQ ID NO 118 Q, 25 g ai/ha + 1% MSO): 60
- Herbicide injury evaluation 14 days after herbicide treatment ([15]; Table 4, SEQ ID NO 118 Q, 75 g ai/ha + 1% MSO): 63
- Herbicide injury evaluation 14 days after herbicide treatment ([15]; Table 4, SEQ ID NO 118 Q, 150 g ai/ha + 1% MSO): 65
- Herbicide injury evaluation 14 days after herbicide treatment ([15]; Table 4, SEQ ID NO 118 R, 25 g ai/ha + 1% MSO): 18
- Herbicide injury evaluation 14 days after herbicide treatment ([15]; Table 4, SEQ ID NO 118 R, 75 g ai/ha + 1% MSO): 28
- Herbicide injury evaluation 14 days after herbicide treatment ([15]; Table 4, SEQ ID NO 118 R, 150 g ai/ha + 1% MSO): 50
- Herbicide injury evaluation 14 days after herbicide treatment ([16]; SEQ ID NO 121 G, 25 g ai/ha + 1% MSO): 100
- Herbicide injury evaluation 14 days after herbicide treatment ([16]; SEQ ID NO 121 G, 75 g ai/ha + 1% MSO): 100
- Herbicide injury evaluation 14 days after herbicide treatment ([16]; SEQ ID NO 121 G, 150 g ai/ha + 1% MSO): 100
- Herbicide injury evaluation 14 days after herbicide treatment ([16]; SEQ ID NO 121 H, 25 g ai/ha + 1% MSO): 100
- Herbicide injury evaluation 14 days after herbicide treatment ([16]; SEQ ID NO 121 H, 75 g ai/ha + 1% MSO): 100
- Herbicide injury evaluation 14 days after herbicide treatment ([16]; SEQ ID NO 121 H, 150 g ai/ha + 1% MSO): 100
- Herbicide injury evaluation 14 days after herbicide treatment ([17]; SEQ ID NO 128 D, 25 g ai/ha + 1% MSO): 85
- Herbicide injury evaluation 14 days after herbicide treatment ([17]; SEQ ID NO 128 D, 75 g ai/ha + 1% MSO): 93
- Herbicide injury evaluation 14 days after herbicide treatment ([17]; SEQ ID NO 128 D, 150 g ai/ha + 1% MSO): 93
- Herbicide injury evaluation 14 days after herbicide treatment ([17]; SEQ ID NO 128 E, 25 g ai/ha + 1% MSO): 85
- Herbicide injury evaluation 14 days after herbicide treatment ([17]; SEQ ID NO 128 E, 75 g ai/ha + 1% MSO): 95
- Herbicide injury evaluation 14 days after herbicide treatment ([17]; SEQ ID NO 128 E, 150 g ai/ha + 1% MSO): 97
- Herbicide injury evaluation 14 days after herbicide treatment ([18]; SEQ ID NO 120 J, 25 g ai/ha + 1% MSO): 80
- Herbicide injury evaluation 14 days after herbicide treatment ([18]; SEQ ID NO 120 J, 75 g ai/ha + 1% MSO): 94
- Herbicide injury evaluation 14 days after herbicide treatment ([18]; SEQ ID NO 120 J, 150 g ai/ha + 1% MSO): 98
- Herbicide injury evaluation 14 days after herbicide treatment ([18]; SEQ ID NO 120 M, 25 g ai/ha + 1% MSO): 94
- Herbicide injury evaluation 14 days after herbicide treatment ([18]; SEQ ID NO 120 M, 75 g ai/ha + 1% MSO): 98
- Herbicide injury evaluation 14 days after herbicide treatment ([18]; SEQ ID NO 120 M, 150 g ai/ha + 1% MSO): 93
